Reference: PMC3305904, “N^β-methylation changes the recognition pattern of aza-β^3-amino acid containing peptidomimetic substrates by protein kinase A” (Organic and Medicinal Chemistry Letters, 2011)
Read-outs that look alike come from different tables or passages of the source.

What was measured:
[1] = molecular target: T1, PKA catalytic subunit (Homo sapiens, UniProt P17612); assay: PKA-catalyzed phosphorylation of peptide/peptidomimetic substrates, [γ-32P]ATP, phosphocellulose paper binding; assay type: biochemical; settings: ATP 100 μM, 30°C, 50 mM TRIS/HCl, pH 7; for 10^2 kcat: Michaelis-Menten fit, value is kcat multiplied by 10^2; for 10^2 kII (second order rate constant): from the initial linear part of the Michaelis-Menten plot, value is kII multiplied by 10^2; for Km: substrate phosphorylation by PKA catalytic subunit, Michaelis-Menten fit of initial velocities, substrate concentration varied
Protocol: The phosphorylation reactions followed the classical Michaelis-Menten rate equation and therefore all substrates were characterized by the Km and kcat values, which correspond to the constant ATP concentration of 0.1 mM. The initial linear part of the Mihaelis-Menten plot was used for the calculation of the second order rate constants kII as described in [10] and these values are also listed in Table 1. Agreement between the parameters kII and values of the ratio of kcat/Km for substrates confirms the applicability of the Michelis-Menten rate equation for the description of the kinetic data.
The method of kinetic measurements was described in our previous article and was based on utilizing the radioactive ATP with [^32P]phosphate in γ-position. The phosphorylated substrates were bound onto Whatman phosphocellulose paper and the paper-bound radioactivity was counted. Linear plots between filter-bound radioactivity and time were used for calculating the initial velocity values of the phosphorylation reaction, which were thereafter processed by the classical Michaelis-Menten rate equation. Kinetic experiments were made at constant ATP concentration (100 μM) and the Km and kcat values were calculated for peptidomimetic substrates, concentrations of which were varied in the reaction mixture.

[2] = molecular target: T1, PKA catalytic subunit; settings: parent peptide, cited from earlier work
Protocol: Table 1 Phosphorylation of N^β-methylated peptidomimetic substrates by PKA catalytic subunit at ATP concentration 100 μM, 30°C, 50 mM TRIS/HCl, pH 7 | column: Km (μM); 10^2 kcat (μmole mg^-1 s^-1); 10^2 kII (L mg^-1 s^-1)

RRASVA [I, RRASVA analog with one N^β-Me-aza-β^3-amino acid residue; likely the N-terminal Arg]
10^2 kcat [1]: 24.4 ± 1.5 μmole mg^-1 s^-1 | 10^2 kII (second order rate constant) [1]: 0.098 ± 0.010 L mg^-1 s^-1 | Km [1]: 209 ± 24 µM

RRASVA [RRASVA analog with one N^β-Me-aza-β^3-amino acid residue; likely the C-terminal Ala]
10^2 kcat [1]: 5.0 ± 0.4 μmole mg^-1 s^-1 | 10^2 kII (second order rate constant) [1]: 0.090 ± 0.015 L mg^-1 s^-1 | Km [1]: 57 ± 17 µM

RRASVA [II, RRASVA analog with one N^β-Me-aza-β^3-amino acid residue; likely the second Arg]
10^2 kcat [1]: 11.9 ± 1.0 μmole mg^-1 s^-1 | 10^2 kII (second order rate constant) [1]: 0.11 ± 0.07 L mg^-1 s^-1 | Km [1]: 79 ± 18 µM

RRASVA [IV, RRASVA analog with one N^β-Me-aza-β^3-amino acid residue; likely Val]
10^2 kcat [1]: 16 ± 2.0 μmole mg^-1 s^-1 | 10^2 kII (second order rate constant) [1]: 0.12 ± 0.02 L mg^-1 s^-1 | Km [1]: 118 ± 36 µM

RRASVA
Km ([2]; phosphorylation by PKA): 11.1 ± 3.5 µM | 10^2 kII (second order rate constant) ([2]; value is kII multiplied by 10^2): 3.2 ± 0.1 L mg^-1 s^-1 | 10^2 kcat ([2]; value is kcat multiplied by 10^2): 36 ± 3 μmole mg^-1 s^-1

RRASVA [III, RRASVA analog with one N^β-Me-aza-β^3-amino acid residue; likely Ala at position -1]
10^2 kcat [1]: 5.5 ± 0.3 μmole mg^-1 s^-1 | 10^2 kII (second order rate constant) [1]: 0.034 ± 0.005 L mg^-1 s^-1 | Km [1]: 91 ± 15 µM
